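Values below derive from 48-hour exposures of cells grown in 96-well plates, with endpoints linearly interpolated between the two concentrations bracketing the appropriate inhibition level. The concentration for full growth arrest is given as TGI.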
Experiments:
Experiment in all cases: NCI anticancer screen, dose series, 48 h
SN12C renal = test system: SN12C renal
HCT-116 colon = test system: HCT-116 colon
HS 578T breast = test system: HS 578T breast
OVCAR-5 ovarian = test system: OVCAR-5 ovarian
M14 melanoma = test system: M14 melanoma
OVCAR-3 ovarian = test system: OVCAR-3 ovarian
SK-MEL-28 melanoma = test system: SK-MEL-28 melanoma
RXF 393 renal = test system: RXF 393 renal
SF-539 CNS = test system: SF-539 CNS
SF-295 CNS = test system: SF-295 CNS
KM12 colon = test system: KM12 colon
SF-268 CNS = test system: SF-268 CNS
MDA-MB-435 = test system: MDA-MB-435
A549 NSCLC = test system: A549 NSCLC
COLO 205 colon = test system: COLO 205 colon
OVCAR-4 ovarian = test system: OVCAR-4 ovarian
CCRF-CEM leukemia = test system: CCRF-CEM leukemia
IGROV1 ovarian = test system: IGROV1 ovarian
SK-MEL-5 melanoma = test system: SK-MEL-5 melanoma
RPMI-8226 leukemia = test system: RPMI-8226 leukemia
PC-3 prostate = test system: PC-3 prostate
HOP-92 NSCLC = test system: HOP-92 NSCLC
UACC-257 melanoma = test system: UACC-257 melanoma
HCT-15 colon = test system: HCT-15 colon
MOLT-4 leukemia = test system: MOLT-4 leukemia
MDA-MB-231 breast = test system: MDA-MB-231 breast
CAKI-1 renal = test system: CAKI-1 renal
OVCAR-8 ovarian = test system: OVCAR-8 ovarian
NCI-H460 lung = test system: NCI-H460 lung
SNB-75 CNS = test system: SNB-75 CNS
NCI-H522 lung = test system: NCI-H522 lung
U251 CNS = test system: U251 CNS
MDA-N = test system: MDA-N
A498 renal = test system: A498 renal
HOP-62 NSCLC = test system: HOP-62 NSCLC
SK-MEL-2 melanoma = test system: SK-MEL-2 melanoma
LOX IMVI melanoma = test system: LOX IMVI melanoma
T-47D breast = test system: T-47D breast
NCI-H226 lung = test system: NCI-H226 lung
786-0 renal = test system: 786-0 renal
MALME-3M melanoma = test system: MALME-3M melanoma
NCI-H23 lung = test system: NCI-H23 lung
HL-60(TB) leukemia = test system: HL-60(TB) leukemia
SR leukemia = test system: SR leukemia
UO-31 renal = test system: UO-31 renal
EKVX NSCLC = test system: EKVX NSCLC
K-562 leukemia = test system: K-562 leukemia
TK-10 renal = test system: TK-10 renal
ACHN renal = test system: ACHN renal
DU-145 prostate = test system: DU-145 prostate
HT29 colon = test system: HT29 colon
SNB-19 CNS = test system: SNB-19 CNS
UACC-62 melanoma = test system: UACC-62 melanoma
MCF7 breast = test system: MCF7 breast
SK-OV-3 ovarian = test system: SK-OV-3 ovarian
HCC-2998 colon = test system: HCC-2998 colon
SW-620 colon = test system: SW-620 colon
BT-549 breast = test system: BT-549 breast
NCI/ADR-RES ovarian = test system: NCI/ADR-RES ovarian

With `CCN(CC)CCC1CCCCN1CC(=O)N1c2ccccc2NC(=O)CC1C` (configuration not stated) the TGI (SN12C renal) was over 100 µM, the TGI (HCT-116 colon) was over 100 µM and the TGI (HS 578T breast) was over 100 µM. It also gave a TGI (OVCAR-5 ovarian) of over 100 µM, a TGI (M14 melanoma) of over 100 µM and a TGI (OVCAR-3 ovarian) of over 100 µM. The TGI (SK-MEL-28 melanoma) was over 100 µM, the TGI (RXF 393 renal) was over 100 µM and the TGI (SF-539 CNS) was over 100 µM. It also gave a TGI (SF-295 CNS) of over 100 µM, a TGI (KM12 colon) of over 100 µM and a TGI (SF-268 CNS) of over 100 µM. It also gave a TGI (MDA-MB-435) of over 100 µM, a TGI (A549 NSCLC) of over 100 µM and a TGI (COLO 205 colon) of over 100 µM. For the same compound, the TGI (OVCAR-4 ovarian) was over 100 µM, the TGI (CCRF-CEM leukemia) was over 100 µM and the TGI (IGROV1 ovarian) was over 100 µM. For the same compound, the TGI (SK-MEL-5 melanoma) was over 100 µM, the TGI (RPMI-8226 leukemia) was over 100 µM and the TGI (PC-3 prostate) was over 100 µM. The TGI (HOP-92 NSCLC) was over 100 µM, the TGI (UACC-257 melanoma) was over 100 µM and the TGI (HCT-15 colon) was over 100 µM. It also gave a TGI (MOLT-4 leukemia) of over 100 µM, a TGI (MDA-MB-231 breast) of over 100 µM and a TGI (CAKI-1 renal) of over 100 µM. It also gave a TGI (OVCAR-8 ovarian) of over 100 µM, a TGI (NCI-H460 lung) of over 100 µM and a TGI (SNB-75 CNS) of 11.8 µM. It also gave a TGI (NCI-H522 lung) of over 100 µM, a TGI (U251 CNS) of over 100 µM and a TGI (MDA-N) of over 100 µM. For the same compound, the TGI (A498 renal) was over 100 µM, the TGI (HOP-62 NSCLC) was over 100 µM and the TGI (SK-MEL-2 melanoma) was over 100 µM. It also gave a TGI (LOX IMVI melanoma) of over 100 µM, a TGI (T-47D breast) of over 100 µM and a TGI (NCI-H226 lung) of over 100 µM. The TGI (786-0 renal) was over 100 µM, the TGI (MALME-3M melanoma) was over 100 µM and the TGI (NCI-H23 lung) was over 100 µM. For the same compound, the TGI (HL-60(TB) leukemia) was over 100 µM, the TGI (SR leukemia) was over 100 µM and the TGI (UO-31 renal) was over 100 µM. The TGI (EKVX NSCLC) was over 100 µM, the TGI (K-562 leukemia) was over 100 µM and the TGI (TK-10 renal) was over 100 µM. It also gave a TGI (ACHN renal) of over 100 µM, a TGI (DU-145 prostate) of over 100 µM and a TGI (HT29 colon) of over 100 µM. For the same compound, the TGI (SNB-19 CNS) was over 100 µM, the TGI (UACC-62 melanoma) was over 100 µM and the TGI (MCF7 breast) was over 100 µM. For the same compound, the TGI (SK-OV-3 ovarian) was over 100 µM and the TGI (HCC-2998 colon) was over 100 µM.

Compound `C#CCOCCCC(=O)O` has a TGI (SN12C renal) of over 100 µM, a TGI (HCT-116 colon) of over 100 µM and a TGI (OVCAR-5 ovarian) of over 100 µM. It also gave a TGI (M14 melanoma) of over 100 µM, a TGI (OVCAR-3 ovarian) of over 100 µM and a TGI (SK-MEL-28 melanoma) of over 100 µM. The TGI (SW-620 colon) was over 100 µM, the TGI (RXF 393 renal) was over 100 µM and the TGI (SF-539 CNS) was over 100 µM. It also gave a TGI (SF-295 CNS) of over 100 µM, a TGI (A549 NSCLC) of over 100 µM and a TGI (COLO 205 colon) of over 100 µM. It also gave a TGI (OVCAR-4 ovarian) of over 100 µM, a TGI (CCRF-CEM leukemia) of over 100 µM and a TGI (IGROV1 ovarian) of over 100 µM. The TGI (BT-549 breast) was over 100 µM, the TGI (SK-MEL-5 melanoma) was over 100 µM and the TGI (RPMI-8226 leukemia) was over 100 µM. For the same compound, the TGI (PC-3 prostate) was over 100 µM, the TGI (HOP-92 NSCLC) was over 100 µM and the TGI (NCI/ADR-RES ovarian) was over 100 µM. For the same compound, the TGI (UACC-257 melanoma) was over 100 µM, the TGI (HCT-15 colon) was over 100 µM and the TGI (MOLT-4 leukemia) was over 100 µM. For the same compound, the TGI (MDA-MB-231 breast) was over 100 µM, the TGI (CAKI-1 renal) was over 100 µM and the TGI (OVCAR-8 ovarian) was over 100 µM. The TGI (NCI-H460 lung) was over 100 µM, the TGI (SNB-75 CNS) was over 100 µM and the TGI (U251 CNS) was over 100 µM. It also gave a TGI (MDA-N) of over 100 µM, a TGI (A498 renal) of over 100 µM and a TGI (HOP-62 NSCLC) of over 100 µM. It also gave a TGI (SK-MEL-2 melanoma) of over 100 µM, a TGI (LOX IMVI melanoma) of over 100 µM and a TGI (T-47D breast) of over 100 µM. For the same compound, the TGI (NCI-H226 lung) was over 100 µM, the TGI (786-0 renal) was over 100 µM and the TGI (NCI-H23 lung) was over 100 µM. The TGI (HL-60(TB) leukemia) was over 100 µM, the TGI (SR leukemia) was over 100 µM and the TGI (EKVX NSCLC) was over 100 µM. For the same compound, the TGI (K-562 leukemia) was over 100 µM, the TGI (TK-10 renal) was over 100 µM and the TGI (ACHN renal) was over 100 µM. The TGI (DU-145 prostate) was over 100 µM, the TGI (HT29 colon) was over 100 µM and the TGI (SNB-19 CNS) was over 100 µM. It also gave a TGI (UACC-62 melanoma) of over 100 µM, a TGI (MCF7 breast) of over 100 µM and a TGI (SK-OV-3 ovarian) of over 100 µM.

From PubChem BioAssay (NCI)
